US10335380B2, “Compounds suitable for the treatment of myeloproliferative neoplasms as well as methods for the diagnosis/prognosis of myeloproliferative neoplasms” (CNIC Fundacion Centro Nacional De investigaciones …, priority 2013, dated 2019)

Tests used:
[1] = system: mice transplanted with MPN BM cells (JAK2-V617F); experiment: In vivo pharmacological treatments of mice transplanted with MPN (Mx1-cre;JAK2-V617F) BM cells; set-up: species or system mouse
Source text: In Mx1-cre; JAK2-V617F double-transgenic mice, expression of the human JAK2-V617F mutation is driven by the endogenous Jak2 promoter and can be conditionally expressed in haematopoietic cells upon Myxovirus resistance-1 (Mx1)-driven Cre recombinase activation by polyinosine-polycytosine (plpC). PlpC-induced transgenic mice and wild-type mice transplanted with BM cells from these mice develop progressive symptoms of PV19,20.
Age-matched, female wild-type C57BL/6J or Nes-gfp mice were used as recipients in bone marrow (BM) transplantation assays and for in vivo pharmacological treatments. […] Vehicle (saline solution) daily injections were performed in the same way. Unless indicated, treatment was initiated 4 weeks posttransplant, when animals evidenced peripheral blood signs of MPN. Mice were randomly distributed prior to treatment initiation, and disease development was monitored over time in peripheral blood samples, using an automated blood counter. […] The neuroprotective drug 4-methylcatechol (10 μg kg-1, i.p.) was injected once daily. The JAK inhibitor INCB018424 (S-Ruxilitinib, Abmole Bioscience) was administered by oral gavage (30 mg kg-1, twice per day separated 10-12 hours) in 0.5% hydroxypropylmethylcellulose (Sigma) after solubilisation in DMSO. The IL-1 receptor antagonist (Kineret, Sobi, Stockholm, Sweden) was administered by subcutaneous osmotic pumps (Alzet) infusing a continuous dosing of 40 mg kg-1 per day. Mice were sacrificed at different time points and subjected to complete necropsy; BM and spleen were analysed by histology and flow cytometry; femora and skull were used for immunostainings, and haematopoietic and stromal cells were additionally used for functional assays ex vivo.
BM cell extraction, flow cytometry and fluorescence-activated cell sorting For haematopoietic cell recovery, bones were crushed in a mortar, filtered through a 40-μm mesh to obtain single cell suspensions, and depleted of red blood cells by lysis in 0.15 M NH4Cl for 10 min at 4° C. Spleen samples were homogenised and filtered prior to lysis; blood samples were directly lysed. Cells (1-2×10^6 cells per sample) were incubated with the appropriate dilution (2-5 μg ml-1) of fluorescent antibody conjugates and 4′,6-diamidino-2-phenylindole (DAPI) for dead cell exclusion, and analysed on LSRFortessa flow cytometer (BD Biosciences, Franklin Lakes, N.J.) equipped with FACSDiva Software (BD Biosciences). […] Biotinylated antibodies were detected with fluorochrome-conjugated streptavidin (BD Biosciences). Phenotypic populations of HSC were defined as long-term haematopoietic stem cells (HSCs) (lin− Sca1+c-kit+ (LSK) CD34− Flt3−), short-term HSCs (LSK CD34+ Flt3−) and multipotent progenitors (MPP) (LSK CD34+ Flt3+).
Cells were filtered through a 40-μm mesh and erythrocytes were lysed as previously described. The resulting bone marrow-enriched cell suspensions were pelleted, washed and resuspended in PBS buffer containing 2% foetal calf serum (FCS) for further analyses. […] BM stromal CD45− CD31− Ter119− cells were further purified according to GFP fluorescence using a FACS Aria cell sorter (BD Bioscience). For the determination of apoptotic cells, samples were washed with PBS after surface antibody staining and subsequently stained with Annexin V-Pacific Blue and SYTOX AADvanced (Invitrogen, Life Technologies, Paisley, UK). For functional assays, cells were enriched by immunomagnetic depletion using biotinylated CD45 and Ter119. For immunophenotypic characterisation, total BM samples were studied by flow cytometry using the following additional antibodies: CD63 (NVG-2), CD105 (MJ7/18), CD140a (APA5), Vcam, CD51 (RMV-7), all from Biolegend; and CD90.2 from BD Biosciences.
Immunofluorescence staining of cryostat sections was performed. For whole mount staining of the calvaria, all incubation times were extended. The antibodies used were TH (Rabbit pAb, Millipore) and GFAP (Rabbit pAb, Dako).

[2] = system: CD45+ haematopoietic cells from BM of Nes-gfp;Mx1-cre;JAK2-V617F mice and control littermates; experiment: Colony-forming units in culture (CFU-C) with drug added in vitro; format: cell-based, mouse; conditions: scored after one week in culture
Procedure: Colony-forming units in culture (CFU-C) assay was performed. […] Colonies of more than 50 cells were scored after 7 days of incubation at 37° C., 5% CO2, 20% O2 in a water-jacketed incubator. For CFU-F assays, BM CD45− Ter119− cells were plated into 6-well dishes and cultured in maintenance medium (α-MEM, 15% FCS with antibiotics). After 10-12 days in culture, adherent cells were fixed with 100% methanol and stained with Giemsa stain (Sigma) to reveal fibroblastic clusters. Colonies with more than 50 cells were scored as CFU-F.

[3] = cited from earlier work
[4] = biological target: murine receptor (β3-adrenergic) (Mus musculus, UniProt P25962); conditions: cited from earlier work
murine receptor (β3-adrenergic), sequence (P25962 whole entry): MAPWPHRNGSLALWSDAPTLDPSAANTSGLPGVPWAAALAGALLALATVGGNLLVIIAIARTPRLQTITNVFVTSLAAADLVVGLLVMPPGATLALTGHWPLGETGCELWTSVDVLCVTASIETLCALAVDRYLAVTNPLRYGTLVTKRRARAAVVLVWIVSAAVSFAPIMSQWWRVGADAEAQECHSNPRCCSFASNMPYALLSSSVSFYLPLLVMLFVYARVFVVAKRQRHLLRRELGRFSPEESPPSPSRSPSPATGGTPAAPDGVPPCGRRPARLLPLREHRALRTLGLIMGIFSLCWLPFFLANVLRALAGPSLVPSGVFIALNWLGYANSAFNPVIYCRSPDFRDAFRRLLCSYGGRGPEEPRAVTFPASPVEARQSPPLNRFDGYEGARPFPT

BM-derived Schwann cells = experiment: Co-culture of BM-derived Schwann cells with JAK2V617F+ BM LSK cells, apoptosis by TUNEL; format: cell-based, mouse; conditions: IL1ra 200 ng ml-1, 24 h co-culture
Procedure: For co-culture of BM-derived Schwann cells and MSCs with BM LSK cells from control and mutant mice, neonatal BM CD45− CD31− Ter119− Nes-GFP+ Pdgfrα−/+ cells containing Schwann cell precursors and MSCs, respectively (Isern J et al., submitted), were sorted and cultured under Schwann cell differentiation conditions, as previously described 34, or mesenchymal culture conditions, in MEMα supplemented with 10 ng ml-1 PDGFAB, 15% FBS. Both were co-cultured for 24 h with primary BM LSK cells isolated by FACS from control or mutant mice. Schwann cells derived from sorted GFP+ Pdgfrα− BM precursors were additionally incubated with IL1ra (200 ng ml-1) for the co-culture period. After 24 h of co-culture, haematopoietic cells were washed away and the remaining adherent Schwann cells were fixed and analysed for apoptosis by TUNEL.

[5] = IL1ra 40 mg kg-1 per day, subcutaneous osmotic pumps, 18 weeks

In the case of `Cc1ccc(O)c(O)c1` [4-methylcatechol], the “incipient MPN signs (haematological parameters)” value ([1]; 8 weeks after transplantation, treatment for the last 4 weeks) is reported as “improved”, the “mutant haematopoietic progenitor expansion” value ([1]; early treatment, 4 weeks, BRL37344 2 mg kg-1 twice a day, 4-methylcatechol 10 μg kg-1 once daily) is reported as “prevented” and the “BM Schwann cells (Gfap immunostaining)” value ([1]; symptomatic MPN mice, 4-methylcatechol 10 μg kg-1 i.p. once daily over a month) is reported as “preserved”. For the same molecule, the MPN-associated neutrophilia ([1]; symptomatic MPN mice, treatment started 4 weeks after transplantation, BRL37344 2 mg kg-1 i.p. twice a day, 4-methylcatechol 10 μg kg-1 i.p. once daily) was “prevented” and the “growth of cultured haematopoietic progenitors (CFU-C)” value [2] was “neither 4-methylcatechol nor BRL37344 affected”.

In the case of `Nc1nc(CC(=O)Nc2ccc(CCNC[C@H](O)c3ccccc3)cc2)cs1` [Mirabegron], the solubility [3] is listed as “poor”, the MPN progression ([1]; BRL37344 or Mirabegron 2 mg kg-1 i.p. twice a day) is listed as “delays” and the “several MPN markers (blood counts)” value ([1]; Mirabegron 2 mg kg-1 i.p. twice a day, last two weeks, 8 weeks after transplantation, to lower extent than BRL37344) is listed as “improved”. The “affinity for the murine receptor” value [4] was “relatively low”.

With “interleukin-1 receptor antagonist: IL-1 receptor antagonist (Kineret, Sobi, Stockholm, Sweden)” the “BM MSC frequency” value [1, 5] was “increased”, the “caspase-1 mRNA expression in haematopoietic progenitors” value [1, 5] was “reduced” and the platelet counts ([1]; IL1ra 40 mg kg-1 per day, subcutaneous osmotic pumps, 18 weeks, starting 2 weeks after transplant) was “reduced”. The “3-fold higher apoptotic rate of Schwann cells co-cultured with JAK2V617F+ haematopoietic progenitors” value (BM-derived Schwann cells) was “blocked”.
